The results in this text go back to ChEMBL document CHEMBL4680067, “Identification of LASSBio-1945 as an inhibitor of SARS-CoV-2 main protease (MPRO) through in silico screening supported by molecular docking and a fragment-based pharmacophore model” (RSC Med Chem, 2021).

The term IC50 denotes the midpoint of a concentration-inhibition curve. The term EC50 denotes the concentration needed to bring the measured effect to its halfway point. What is called inhibition is the drop in the measured response relative to a control, in per cent.

Experiment [1] can be described thus: Inhibition of SARS CoV-2 main protease by rapidfire high-throughput mass spectrometry. Also noted: species or system Severe acute respiratory syndrome coronavirus 2.
The next experiment relates to SARS-CoV-2. The experiment is described as follows: Antiviral activity against SARS CoV-2 infected in African green monkey Vero cells assessed as inhibition of viral replication measured after 72 hrs by qRT-PCR analysis. It is filed as functional, organism-based. The following applies: Severe acute respiratory syndrome coronavirus 2, Vero. (In qPCR the cycle at which signal appears reflects the starting amount.)

For experiment [2], the system named is Severe acute respiratory syndrome coronavirus 2. Briefly: Inhibition of SARS CoV-2 main protease at 50 uM by rapidfire high-throughput mass spectrometry relative to control.
The nature of experiment [3]: Inhibition of SARS CoV-2 main protease. Also noted: species or system Severe acute respiratory syndrome coronavirus 2.

Consider `Cc1ncccc1NC(=O)Cc1cccc(Cl)c1`, for which the IC50 entry in experiment [1] is recorded as “Not Active”. As for `O=C(Cc1cccc(Cl)c1)Nc1cccnc1`, the 50% inhibitory concentration (IC50) in experiment [1] (read-out: IC50) was found to be 53.7 µM. On to `Cc1cc(C(=O)N[C@@H](C)C(=O)N[C@H](C(=O)N[C@@H](CC(C)C)C(=O)N[C@H](/C=C/C(=O)OCc2ccccc2)C[C@@H]2CCNC2=O)C(C)C)no1`, for which, in the experiment with SARS-CoV-2, the concentration for a half-maximal effect (EC50) came out at 16.8 µM.

In the case of `Cc1csc(C(=O)N/N=C/c2cccnc2)c1N`, the inhibition in experiment [2] was -6.32%. Same read-out and setting: in the case of `O=C(Nc1ccccc1)Nc1cnc2ccc([N+](=O)[O-])cc2n1` it was 0.77%; in that of `O=C(CNc1c(-c2ccccc2)nc2ccccn12)N/N=C/c1cccc2ccccc12`, 7.53%. `CCCc1cc2c(cc1S(=O)(=O)N1CCN(c3ccccc3)CC1)OCO2`: the inhibition in experiment [2] came out at 68.3%. In addition, the IC50 in experiment [1] (read-out: IC50) is 16 µM.

As to `Cc1ccc(NC(=O)Cc2cccc(Cl)c2)cn1`, the half-maximal inhibitory concentration (IC50) result in experiment [1] is listed as “Not Active”. In experiment [3], `COc1ccc(/N=C2/C(=O)N(Cc3ccc4ccccc4c3)c3ccc(C(N)=O)cc32)cc1` displayed an IC50 of 17 µM. As for `Cc1[nH]c2ccccc2c1/C=N/N(C)C(=O)c1ccc2c(c1)OCO2`, the inhibition in experiment [2] is -6.66%.
